In brackets after ≈: the same amount, converted by molar mass. Activity calls are given as the source filed them. The rule behind the calls is not given here.
Key:
[1] = Selectivity index, ratio of CC50 for rat L6 cells to IC50 for Trypanosoma brucei rhodesiense STIB900; format: functional
L6 = assay: Cytotoxicity against rat L6 cells after 72 hrs by alamar blue assay; format: cell-based; conditions: L6, 72 h
Plasmodium falciparum = assay: Antiplasmodial activity against chloroquine and pyrimethamine resistant Plasmodium falciparum K1 infected in human red blood cells assessed as reduction in parasite viability after 48 hrs by [3H]-hypoxanthine incorporation assay; format: functional, organism-based
[2] = Selectivity index, ratio of CC50 for rat L6 cells to IC50 for chloroquine and pyrimethamine resistant Plasmodium falciparum K1; format: functional
[3] = system: Trypanosoma brucei rhodesiense; assay: Antitrypanosomal activity against Trypanosoma brucei rhodesiense STIB900 bloodstream forms after 72 hrs by alamar blue assay; format: functional, organism-based; conditions: STIB900, 72 h
Plasmodium berghei [4] = assay: Antiplasmodial activity against GFP-transfected Plasmodium berghei ANKA infected in NMRI mouse assessed as reduction in parasitemia at 50 mg/kg, ip administered 4, 24, 48 and 72 hrs post infection by FACS analysis; format: functional; conditions: route intraperitoneal
Plasmodium berghei [5] = assay: Antiplasmodial activity against GFP-transfected Plasmodium berghei ANKA infected in NMRI mouse assessed as mean survival day at 50 mg/kg, ip administered 4, 24, 48 and 72 hrs post infection (reference value: 4 to 6 days); format: functional; conditions: route intraperitoneal
[6] = system: Staphylococcus epidermidis; assay: Antibacterial activity against Staphylococcus epidermidis ATCC 12228 at 100 ug after 24 hrs; format: functional, organism-based
Staphylococcus aureus = assay: Antibacterial activity against Staphylococcus aureus ATCC 25923 at 100 ug after 24 hrs; format: functional
Escherichia coli = assay: Antibacterial activity against Escherichia coli ATCC 25922 at 100 ug after 24 hrs; format: functional; conditions: ATCC 25922, 24 h, read-out: DIZ
Plasmodium berghei [7] = assay: Antiplasmodial activity against GFP-transfected Plasmodium berghei ANKA infected in NMRI mouse assessed as reduction in parasitemia at 10 mg/kg, ip administered 4, 24, 48 and 72 hrs post infection by FACS analysis; format: functional; conditions: route intraperitoneal
Plasmodium berghei [8] = assay: Antiplasmodial activity against GFP-transfected Plasmodium berghei ANKA infected in NMRI mouse assessed as reduction in parasitemia at 20 mg/kg, ip administered 4, 24, 48 and 72 hrs post infection by FACS analysis; format: functional; conditions: route intraperitoneal
Plasmodium berghei [9] = assay: Antiplasmodial activity against GFP-transfected Plasmodium berghei ANKA infected in NMRI mouse assessed as reduction in parasitemia at 100 mg/kg, po administered 4, 24, 48 and 72 hrs post infection by FACS analysis; format: functional
Plasmodium berghei [10] = assay: Antiplasmodial activity against GFP-transfected Plasmodium berghei ANKA infected in NMRI mouse assessed as reduction in parasitemia at 100 mg/kg, po administered 24 hrs post infection by FACS analysis; format: functional
Plasmodium berghei [11] = assay: Antiplasmodial activity against GFP-transfected Plasmodium berghei ANKA infected in NMRI mouse assessed as reduction in parasitemia at 200 mg/kg, po administered 24 hrs post infection by FACS analysis; format: functional
Plasmodium berghei [12] = assay: Antiplasmodial activity against GFP-transfected Plasmodium berghei ANKA infected in NMRI mouse assessed as mean survival day at 10 mg/kg, ip administered 4, 24, 48 and 72 hrs post infection (reference value: 4 days); format: functional; conditions: route intraperitoneal
Plasmodium berghei [13] = assay: Antiplasmodial activity against GFP-transfected Plasmodium berghei ANKA infected in NMRI mouse assessed as mean survival day at 20 mg/kg, ip administered 4, 24, 48 and 72 hrs post infection (reference value: 4 days); format: functional; conditions: route intraperitoneal
Plasmodium berghei [14] = assay: Antiplasmodial activity against GFP-transfected Plasmodium berghei ANKA infected in NMRI mouse assessed as mean survival day at 100 mg/kg, po administered 4, 24, 48 and 72 hrs post infection (reference value: 4 days); format: functional
Plasmodium berghei [15] = assay: Antiplasmodial activity against GFP-transfected Plasmodium berghei ANKA infected in NMRI mouse assessed as mean survival day at 100 mg/kg, po administered 24 hrs post infection (reference value: 3 days); format: functional
Plasmodium berghei [16] = assay: Antiplasmodial activity against GFP-transfected Plasmodium berghei ANKA infected in NMRI mouse assessed as mean survival day at 200 mg/kg, po administered 24 hrs post infection (reference value: 3 days); format: functional
Plasmodium berghei [17] = assay: Antiplasmodial activity against GFP-transfected Plasmodium berghei ANKA infected in NMRI mouse assessed as reduction in parasitemia administered intraperitoneally 4, 24, 48 and 72 hrs post infection by FACS analysis; format: functional
Plasmodium berghei [18] = assay: Antiplasmodial activity against orally dosed GFP-transfected Plasmodium berghei ANKA infected in NMRI mouse assessed as reduction in parasitemia by FACS analysis; format: functional
Leishmania sp. = assay: Antiparasitic activity against Leishmania sp.; format: functional, organism-based
Trypanosoma = assay: Antiparasitic activity against Trypanosoma sp.; format: functional, organism-based
[19] = target: Voltage-gated inwardly rectifying potassium channel KCNH2 (Homo sapiens, UniProt Q12809); assay: Inhibition of human ERG expressed in HEK293 cells assessed as reduction in tail current at membrane potential of +20 mV; format: cell-based
Voltage-gated inwardly rectifying potassium channel KCNH2, sequence (Q12809 whole entry): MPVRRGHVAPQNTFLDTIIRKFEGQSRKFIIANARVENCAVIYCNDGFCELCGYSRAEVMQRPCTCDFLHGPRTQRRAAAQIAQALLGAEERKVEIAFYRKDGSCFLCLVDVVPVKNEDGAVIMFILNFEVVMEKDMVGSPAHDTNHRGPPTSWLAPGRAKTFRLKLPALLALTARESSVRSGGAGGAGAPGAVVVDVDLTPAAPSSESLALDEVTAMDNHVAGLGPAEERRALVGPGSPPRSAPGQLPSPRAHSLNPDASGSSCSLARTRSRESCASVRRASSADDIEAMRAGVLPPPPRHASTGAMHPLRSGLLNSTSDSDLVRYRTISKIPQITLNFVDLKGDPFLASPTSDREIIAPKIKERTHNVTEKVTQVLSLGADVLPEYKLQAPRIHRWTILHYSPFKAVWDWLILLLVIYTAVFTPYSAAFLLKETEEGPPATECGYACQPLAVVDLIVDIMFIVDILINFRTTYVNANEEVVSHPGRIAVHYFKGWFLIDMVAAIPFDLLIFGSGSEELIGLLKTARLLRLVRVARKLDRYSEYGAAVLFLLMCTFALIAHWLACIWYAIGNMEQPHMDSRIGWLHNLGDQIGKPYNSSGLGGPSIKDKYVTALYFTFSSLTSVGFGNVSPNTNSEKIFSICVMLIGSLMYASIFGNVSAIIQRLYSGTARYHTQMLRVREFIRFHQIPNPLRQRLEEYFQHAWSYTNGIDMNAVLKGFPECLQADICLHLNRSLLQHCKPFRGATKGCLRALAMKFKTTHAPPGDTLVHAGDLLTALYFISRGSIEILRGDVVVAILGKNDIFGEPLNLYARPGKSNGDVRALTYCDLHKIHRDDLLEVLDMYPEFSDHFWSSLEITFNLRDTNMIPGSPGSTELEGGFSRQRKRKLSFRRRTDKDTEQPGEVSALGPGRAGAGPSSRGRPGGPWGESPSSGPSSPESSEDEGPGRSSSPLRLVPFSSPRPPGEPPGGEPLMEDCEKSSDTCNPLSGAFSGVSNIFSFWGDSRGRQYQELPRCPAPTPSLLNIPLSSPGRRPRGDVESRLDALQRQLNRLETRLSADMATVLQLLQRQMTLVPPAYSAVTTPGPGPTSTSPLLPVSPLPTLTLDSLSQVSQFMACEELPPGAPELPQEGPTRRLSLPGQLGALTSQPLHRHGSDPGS

[20] = Half life in rat at 10 mg/kg, iv; format: ADME, organism-based; parameters: dose 10 mg/kg, route intravenous; conditions: in vivo
Mus musculus = assay: Toxicity in GFP-transfected Plasmodium berghei ANKA infected NMRI mouse at 200 mg/kg, po administered 24 hrs post infection; format: organism-based; parameters: dose 200 mg/kg, route oral; conditions: in vivo
Proteus mirabilis = assay: Antibacterial activity against Proteus mirabilis ATCC 14153 at 100 ug after 24 hrs; format: functional; conditions: ATCC 14153, 24 h, read-out: DIZ
Enterococcus faecalis = assay: Antibacterial activity against Enterococcus faecalis ATCC 14506 at 100 ug after 24 hrs; format: functional
Enterococcus faecium = assay: Antibacterial activity against Enterococcus faecium ATCC 6057 at 100 ug after 24 hrs; format: functional; conditions: ATCC 6057, 24 h, read-out: DIZ
Klebsiella oxytoca = assay: Antibacterial activity against Klebsiella oxytoca ATCC 8724 at 100 ug after 24 hrs; format: functional, organism-based
Bacillus subtilis = assay: Antibacterial activity against Bacillus subtilis ATCC 6051 at 100 ug after 24 hrs; format: functional, organism-based
Raoultella planticola = assay: Antibacterial activity against Raoultella planticola ATCC 15050 at 100 ug after 24 hrs; format: functional, organism-based
Candida albicans = assay: Antifungal activity against Candida albicans ATCC 10231 at 100 ug after 48 hrs; format: functional, organism-based
Candida tropicalis = assay: Antifungal activity against Candida tropicalis ATCC 13803 at 100 ug after 48 hrs; format: functional, organism-based
Candida parapsilosis = assay: Antifungal activity against Candida parapsilosis ATCC 90018 at 100 ug after 48 hrs; format: functional, organism-based
[21] = system: Mycolicibacterium smegmatis; assay: Antimycobacterial activity against Mycobacterium smegmatis ATCC 14468 assessed as inhibition of bacterial growth after 72 hrs by MTT dye based microbroth dilution assay; format: functional; conditions: ATCC 14468, 72 h
hERG (KCNH2) [22] = target: T1, hERG (KCNH2) (Homo sapiens, UniProt Q12809); assay: Inhibition of human ERG expressed in HEK293 cells assessed as reduction in tail current at 3 uM and at membrane potential of +0 mV; format: cell-based; conditions: HEK293 cells that express hERG
T1 sequence (Q12809 whole entry): as above

hERG (KCNH2) [23] = target: T1, hERG (KCNH2); assay: Inhibition of human ERG expressed in HEK293 cells assessed as reduction in tail current at 3 uM and at membrane potential of +20 mV; format: cell-based; conditions: HEK293 cells that express hERG

With `Cl.Clc1ccc(C2CC3(N4CCCCC4)CCNC2C(c2ccc(Cl)cc2)C3)cc1` (racemic) the “Ratio IC50” value [1] was 124.

For `CN(C)C12CNCC(C(c3ccccc3)C1)C(c1ccccc1)C2.Cl` (racemic), the IC50 (L6) was 122 µM, the IC50 (Plasmodium falciparum) was 270 nM and the “Ratio IC50” value [2] was 452.2. For the same compound, the IC50 [3] was 1580 nM, the “Ratio IC50” value [1] was 77.3 and the inhibition in vivo at 50 mg/kg (Plasmodium berghei [4]) was 0%. The MSD (Plasmodium berghei [5]) was 4 days.

In the case of `Cl.c1ccc(C2CC3(N4CCOCC4)CNCC2C(c2ccccc2)C3)cc1` (racemic), the IC50 (L6) is reported as 43.3 µM, the IC50 (Plasmodium falciparum) is reported as 650 nM and the “Ratio IC50” value [2] is reported as 66.63. For the same compound, the IC50 [3] was 3840 nM and the “Ratio IC50” value [1] was 11.3.

In the case of `Cl.c1ccc(C2CC3(N4CCCC4)CNCC2C(c2ccccc2)C3)cc1` (racemic), the “diameter of the inhibition zone (DIZ)” value [6] is reported as “inactive”, the “diameter of the inhibition zone (DIZ)” value (Staphylococcus aureus) is reported as “inactive” and the zone of inhibition at 100 µg/disc (Escherichia coli) is reported as 10 mm. The IC50 (L6) was 72.9 µM, the IC50 (Plasmodium falciparum) was 95 nM and the “Ratio IC50” value [2] was 767.7. The IC50 [3] was 1000 nM, the “Ratio IC50” value [1] was 72.9 and the inhibition in vivo at 50 mg/kg (Plasmodium berghei [4]) was 94.8%. It also gave an inhibition in vivo at 10 mg/kg (Plasmodium berghei [7]) of 25.1%, an inhibition in vivo at 20 mg/kg (Plasmodium berghei [8]) of 60.1% and an inhibition in vivo at 100 mg/kg (Plasmodium berghei [9]) of 97.7%. The inhibition in vivo at 100 mg/kg (Plasmodium berghei [10]) was 70.5%, the inhibition in vivo at 200 mg/kg (Plasmodium berghei [11]) was 66.1% and the MSD (Plasmodium berghei [5]) was 15 days. The MSD (Plasmodium berghei [12]) was 4 days, the MSD (Plasmodium berghei [13]) was 10 days and the MSD (Plasmodium berghei [14]) was 18.6 days. For the same compound, the MSD (Plasmodium berghei [15]) was 12 days, the MSD (Plasmodium berghei [16]) was 16 days and the inhibition (Plasmodium berghei [17]) was “Dose-dependent effect”. The ED50 (Plasmodium berghei [17]; ip) was 17 mg/kg, the ED90 (Plasmodium berghei [17]; ip) was 40 mg/kg and the inhibition (Plasmodium berghei [18]) was “Dose-dependent effect”. The ED50 (Plasmodium berghei [18]; po) was 75 mg/kg, the inhibition (Leishmania sp.) was “Active” and the inhibition (Trypanosoma) was “Active”. For the same compound, the IC50 [19] was 2630 nM, the “inhibition (INH)” value ([19]; human, hek293) was “Dose-dependent effect” and the half-life [20] was 18 min. The Activity (Mus musculus) was “Toxic”, the zone of inhibition at 100 µg/disc (Proteus mirabilis) was 11 mm and the “diameter of the inhibition zone (DIZ)” value (Enterococcus faecalis) was “inactive”. The zone of inhibition at 100 µg/disc (Enterococcus faecium) was 10 mm, the “diameter of the inhibition zone (DIZ)” value (Klebsiella oxytoca) was “inactive” and the “diameter of the inhibition zone (DIZ)” value (Bacillus subtilis) was “inactive”. For the same compound, the “diameter of the inhibition zone (DIZ)” value (Raoultella planticola) was “inactive”, the “diameter of the inhibition zone (DIZ)” value (Candida albicans) was “inactive” and the “diameter of the inhibition zone (DIZ)” value (Candida tropicalis) was “inactive”. For the same compound, the “diameter of the inhibition zone (DIZ)” value (Candida parapsilosis) was “inactive”, the MIC [21] was 128 µg/mL and the inhibition at 3 µM (hERG (KCNH2) [22]) was 45.9%. It also gave an inhibition at 3 µM (hERG (KCNH2) [23]) of 54.8%.

In the case of `Cl.c1ccc(C2CC3(N4CCCCC4)CNCC2C(c2ccccc2)C3)cc1` (racemic), the IC50 (L6) is reported as 122 µM, the IC50 (Plasmodium falciparum) is reported as 750 nM and the “Ratio IC50” value [2] is reported as 163.1. The IC50 [3] was 2020 nM and the “Ratio IC50” value [1] was 60.5.

For `Cl.Clc1ccc(C2CC3(N4CCCC4)CNCC2C(c2ccc(Cl)cc2)C3)cc1` (racemic), the IC50 (L6) was 9.11 µM, the IC50 [3] was 260 nM and the “Ratio IC50” value [1] was 35.

With `Cl.Clc1ccc(C2CC3(N4CCCCC4)CNCC2C(c2ccc(Cl)cc2)C3)cc1` (racemic) the IC50 (L6) was 8.09 µM, the IC50 (Plasmodium falciparum) was 370 nM and the “Ratio IC50” value [2] was 21.86. For the same compound, the IC50 [3] was 320 nM and the “Ratio IC50” value [1] was 25.3.

Compound `C[C@@H]1CC[C@H]2[C@@H](C)C(=O)O[C@@H]3O[C@@]4(C)CC[C@@H]1[C@]32OO4` [ARTEMISININ] has an IC50 (Plasmodium falciparum) of 6.4 nM.

`CCN(CC)CCCC(C)Nc1ccnc2cc(Cl)ccc12` (stereo not given) [CHLOROQUINE] gave an inhibition in vivo at 10 mg/kg (Plasmodium berghei [7]) of 99.6% and an MSD (Plasmodium berghei [12]) of 20 days.

Work on `NNC(=O)c1ccncc1` [ISONIAZID] yielded an MIC [21] of 4 µg/mL (≈ 29.2 µM).

Work on `NC[C@H]1O[C@H](O[C@H]2[C@H](O)[C@@H](O[C@H]3O[C@H](CO)[C@@H](O)[C@H](N)[C@H]3O)[C@H](N)C[C@@H]2N)[C@H](O)[C@@H](O)[C@@H]1O` [KANAMYCIN] yielded a zone of inhibition at 100 µg/disc (Escherichia coli) of 20 mm and a zone of inhibition at 100 µg/disc (Proteus mirabilis) of 20 mm.

For `CC1(C)S[C@@H]2[C@H](NC(=O)Cc3ccccc3)C(=O)N2[C@H]1C(=O)O` [PENICILLIN G], the zone of inhibition at 100 µg/disc (Staphylococcus aureus; ATCC 25923, 24 h, read-out: DIZ) was 30 mm, the zone of inhibition at 100 µg/disc (Escherichia coli) was 15 mm and the zone of inhibition at 100 µg/disc (Enterococcus faecalis; ATCC 14506, 24 h, read-out: DIZ) was 20 mm.

Compound NYSTATIN has an inhibition zone (IZ) (Candida tropicalis) of 20 mm and an inhibition zone (IZ) (Candida parapsilosis) of 25 mm.
